A short description of assay [1]: Cytotoxicity against human MV cells assessed as inhibition of cell proliferation by sulforhodamine B assay. It is filed as functional, cell-based.
The nature of assay [2]: Cytotoxicity against human HuH7 cells assessed as inhibition of cell proliferation by sulforhodamine B assay. In kind it is functional, cell-based. The conditions noted are these: Huh-7.

Consider `C#CC(=O)N1C(CCCCC)SC[C@@H]1C(=O)OCC` (mixture of isomers), for which the IC50 stood at 2000 nM in assay [1] and 1800 nM in assay [2].

For `C#CC(=O)N1C(C(C)(C)C)SC[C@@H]1C(=O)OCC` (mixture of isomers), the IC50 in assay [1] turned out to be 900 nM; in assay [2], 800 nM.

`CC[C@@]1(O)C(=O)OCc2c1cc1n(c2=O)Cc2cc3ccccc3nc2-1` [CAMPTOTHECIN]: the IC50 is under 1000 nM in assay [1] and 100 nM in assay [2].

As for `C#CC(=O)N1C(c2ccccc2)SC[C@@H]1C(=O)OCC` (some centres not stated), the IC50 in assay [1] turned out to be 400 nM; in assay [2], 5300 nM.

For the molecule `C#CC(=O)N1C(CCCC)SC[C@@H]1C(=O)OCC` (mixture of isomers), the IC50 in assay [1] turned out to be 400 nM; in assay [2], 500 nM.

Consider `C#CC(=O)N1C(C(C)CCC)SC[C@@H]1C(=O)OCC` (mixture of isomers), for which the IC50 is 500 nM in assay [1] and 600 nM in assay [2].

In the case of `O=c1[nH]cc(F)c(=O)[nH]1` [FLUOROURACIL], in assay [1], the IC50 was 10000 nM.

With `C#CC(=O)N1C(c2ccccc2F)SC[C@@H]1C(=O)OCC` (mixture of isomers), the IC50 in assay [1] and in assay [2] was 1700 nM throughout.

For the molecule `C#CC(=O)N1C(c2ccc(F)cc2)SC[C@@H]1C(=O)OCC` (mixture of isomers), the values for the IC50 in assay [1] and in assay [2] were 400 nM and 700 nM, respectively.

Turning to `C#CC(=O)N1C(c2cccc(F)c2)SC[C@@H]1C(=O)OCC` (mixture of isomers), the values for the half-maximal inhibitory concentration (IC50) in assay [1] and in assay [2] were 1700 nM and 1400 nM, respectively.

Consider `C#CC(=O)N1C(C(CC)CCCC)SC[C@@H]1C(=O)OCC` (mixture of isomers), for which the IC50 in assay [1] was found to be 1600 nM; in assay [2], 1700 nM.

For the molecule `C#CC(=O)N1C(c2ccc(C#N)cc2)SC[C@@H]1C(=O)OCC` (mixture of isomers), the 50% inhibitory concentration (IC50) in assay [1] was 2400 nM; in assay [2], 2600 nM.

As for `C#CC(=O)N1C(CC(C)CC(C)(C)C)SC[C@@H]1C(=O)OCC` (mixture of isomers), the IC50 stood at 1100 nM in assay [1] and 1600 nM in assay [2].

Regarding `C#CC(=O)N1C(c2ccc(OC)cc2)SC[C@@H]1C(=O)OCC` (mixture of isomers), the IC50 was 700 nM in assay [1] and 1400 nM in assay [2].

Source of the values: ChEMBL document CHEMBL3616386, “3-Propionyl-thiazolidine-4-carboxylic acid ethyl esters: a family of antiproliferative thiazolidines” (Medchemcomm, 2015).
